Literature values in patent US20250223207A1, “COMPOSITIONS OF SUPPORTED METAL CATALYSTS AND METHODS THEREOF” (THE TEXAS A&M UNIVERSITY SYSTEM, priority 2024, published 2025).

Details: PFAS compounds, Table 7

Row | Structure (SMILES) | pKa
1 | O=C(O)C(F)(OC(F)(F)C(F)(F)C(F)(F)F)C(F)(F)F (stereo not shown) [HFPO-DA, hexafluoropropylene oxide dimer acid] | 2.84
2 | O=S(=O)(O)C(F)(F)C(F)(F)C(F)(F)C(F)(F)F [PFBS, perfluorobutane sulfonic acid] | −3.31
3 | O=S(=O)(O)C(F)(F)C(F)(F)C(F)(F)C(F)(F)C(F)(F)C(F)(F)F [PFHxS, perfluorohexanesulfonic acid] | −3.32
4 | O=C(O)C(F)(F)C(F)(F)C(F)(F)C(F)(F)C(F)(F)C(F)(F)C(F)(F)C(F)(F)F [PFNA, perfluorononanoic acid] | −0.21
5 | O=C(O)C(F)(F)C(F)(F)C(F)(F)C(F)(F)C(F)(F)C(F)(F)C(F)(F)F [PFOA, perfluorooctanoic acid] | 1.30
6 | O=S(=O)(O)C(F)(F)C(F)(F)C(F)(F)C(F)(F)C(F)(F)C(F)(F)C(F)(F)C(F)(F)F [PFOS, perfluoro octane sulfonic acid] | =<1.0

Details: human bodies, oral

Row | Fraction of orally taken dose metabolized [%] | Structure (SMILES)
7 | 22.5 | COc1cc(Cc2cnc(N)nc2N)cc(OC)c1OC [TMP, Trimethoprim]
